The values that follow come from US20240368145A1, “METHODS FOR TREATING CANCER” (IMMUNIC AG, priority 2021, published 2024).

Type in all cases: cell-based
One assay has as its system AR-V7 mRNA. Kind of assay: Androgen receptor RNA level expression (qRT-PCR) in 22Rv1: AR-V7. The following applies: 22Rv1, 1 μM, 48 h; for mrna remaining at 1 µM: Homo sapiens, normalized to untreated control (vehicle/DMSO). The procedure: (§1) The prostate cancer cell line 22Rv1 was treated for 48 h with 1 μM Example compound 1, 1/1, 1/2, 2/1, 2/2, 2/3, 2/4, 2/5, 2/6, 2/7, 2/8, 2/9 and 2/10 and the reference compounds SR2211 and XY018 (Nat. Med. 2016; 22:488). RNA was extracted using the RNA isolation kit XS (Macherey-Nagel) and following the manufacture's manual. RNA quantity was measured with the Nanodrop before reverse transcription using Superscript II (Invitrogen #100004925). For the quantitative real-time PCR with SYBR-Green (Qiagen #204074), the following primers were used: AR forward-ACATCAAGGAACTCGATCGTATCATTGC and reverse-TTGGGCACTTGCACAGAGAT, AR-V7: forward-CCATCTTGTCGTCTTCGGAAATGTTATGAAGC and reverse-TTTGAATGAGGCAAGTCAGCCTTTCTT. The qRT-PCR proceeded as follows: denaturation for 5 min 95° C.; 40 cycles of “20 sec at 95° C. and 15 sec at 60° C.” and at the end of the last cycle, the melting temperature of the products was determined by gradually increasing it from 60° C. to 99° C. CT values from all samples were normalized to two different reference (housekeeping) genes using the mean CT value of the GAPDH and YWHAZ (reference genes). Next the values are normalized to the untreated control (vehicle/DMSO).

Another assay has as its system IFNγ. Kind of assay: Cytokine assay, human PBMC stimulated with PHA: IFNγ. The following applies: PHA-activated, 48 hours, read-out: IFNγ inhibition (IC50 range). The procedure:
(§2) Peripheral blood mononuclear cells (PBMC) from healthy human donors were purified using Accuspin™ System-Histopaque-1077 (Sigma) according to the protocol recommended by the manufacturer. Purified PBMC were then washed twice with phosphate-buffered saline (PBS) and resuspended in RPMI1640 culture medium supplemented with 10% dialyzed heat inactivated fetal calf serum, 1.5 mM L-glutamine, 100 U penicillin/mL and […] streptomycin/mL (all from PAN Biotech, Aidenbach, Germany). For stimulation, PBMC were seeded at 1×10^5 cells/well, activated with 2 gg/mL phytohaemagglutinin (PHA, Sigma) and incubated with the test compounds for 48 hours. IL-17A, IL-17F and INFγ were then determined in the culture supernatant using a Luminex BioPlex system, following the manufacturer's instructions (BioRad, Munich, Germany). To determine the IC50, compounds were titrated semilogarithmically.
(§3) Cytokines were determined in the aforementioned culture supernatant using the following methods: IL-17A was measured using the human homodimer IL-17A ELISA Ready Set Go Kit from cBioscience (Frankfurt, Germany); IL-17F using the human IL-17F ELI-Pair from Holzel Diagnostica GmbH (K51n, Germany); and IFNγ using the OptEIA human IFN-g ELISA from BD Bioscience (Heidelberg, Germany), all following the manufacturer's instructions.

The subject of a further assay is IL-17F. Kind of assay: Cytokine assay, human PBMC stimulated with PHA: IL-17F. Conditions: PHA-activated, 48 hours, read-out: IL-17F inhibition (IC50 range). The procedure: as §2, §3
A further assay deals with KLK2 mRNA. Kind of assay: Expression of AR target genes (qRT-PCR) in 22Rv1: KLK2. Conditions: 22Rv1, 1 μM; for KLK2 mRNA level expression: 48 h; for mrna remaining at 1 µM: Homo sapiens, 48h, relative to vehicle control (DMSO). The method, then:
(§4) The prostate cancer cell line 22Rv1 was treated for 48h with 1 μM Example compound 1, 1/1, 2/1, 2/2, 2/3, 2/4, 2/5, 2/6, 2/7, 2/8, 2/9 and 2/10 and reference compounds SR2211 and XY018. RNA was extracted using the RNA isolation kit XS (Macherey-Nagel) and following the manufacture's manual. RNA quantity was measured with the Nanodrop before reverse transcription using Superscript II (Invitrogen #100004925). For the quantitative real-time PCR with SYBR-Green (Qiagen #204074), the following primers were used:
(§5) qRT-PCR was performed using SYBR-Green (Qiagen #204074) reagents in a PCR cycler (Gorbett Research) Rotor Gene RG3000 with the following program: denaturation for 5′ at 95° C.; 40 cycles of 20″ at 95° C. and 15″ at 60° C.″ and at the end of the last cycle, the melting temperature of the products was determined by gradually increasing from 60° C. to 99° C. CT values from all samples were normalized to reference (housekeeping) genes using the mean CT value of the GAPDH and YWHAZ (reference genes). Next the values are put relative to the untreated control (vehicle/DMSO).
A general note: Real-time PCR tracks product formation cycle by cycle.

The next assay deals with IL-17A. Kind of assay: Cytokine assay, human PBMC stimulated with PHA: IL-17A. Conditions: PHA-activated, 48 hours, read-out: IL-17A inhibition (IC50 range). The method, then: as §2, §3
Assay [1] concerns full length AR (AR-FL) mRNA. Briefly: Androgen receptor RNA level expression (qRT-PCR) in 22Rv1: AR-FL. The following applies: 22Rv1, 1 μM, 48 h; for mrna remaining at 1 µM: Homo sapiens, normalized to untreated control (vehicle/DMSO). The method, then:
as §1

The test system of another assay is NKX3.1 mRNA. Kind of assay: Expression of AR target genes (qRT-PCR) in 22Rv1: NKX3.1. Conditions: Homo sapiens; 22Rv1, 1 μM, 48h; relative to vehicle control (DMSO). The method, then: as §4, §5
A further assay relates to FKBP5 mRNA. Kind of assay: Expression of AR target genes (qRT-PCR) in 22Rv1: FKBP5. Conditions: Homo sapiens; 22Rv1, 1 μM, 48h; relative to vehicle control (DMSO). The method, then: as §4, §5
In another assay the target is T1, RORγt (Homo sapiens, UniProt P51449).
T1 sequence (P51449 269-518 limits assumed): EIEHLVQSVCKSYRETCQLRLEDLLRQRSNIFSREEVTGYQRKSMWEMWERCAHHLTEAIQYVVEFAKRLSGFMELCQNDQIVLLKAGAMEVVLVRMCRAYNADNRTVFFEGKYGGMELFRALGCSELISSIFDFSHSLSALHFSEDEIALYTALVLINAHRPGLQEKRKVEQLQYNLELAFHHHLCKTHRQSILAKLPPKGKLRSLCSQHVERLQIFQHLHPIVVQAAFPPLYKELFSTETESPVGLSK
Briefly: RORγt inhibition, Indigo Biosciences Human RAR-related Orphan Receptor, Gamma Reporter Assay System. The following applies: luciferase reporter cells, 22-24 h incubation; read-out: IC50 range, RORγt assay. The method, then: The in vitro inhibition of RORγt was measured using Indigo Biosciences Human RAR-related Orphan Receptor, Gamma Reporter Assay System (Product #11304001-32) as described in the technical manual. In brief, 200 μL of Reporter Cells is dispensed into wells of the assay plate and preincubated for 4-6 h. Following the pre-incubation period, culture media are discarded and 200 μL/well of the prepared 1×-concentration treatment media are added. Following 22-24 h incubation, treatment media are discarded and Luciferase Detection Reagent is added. The intensity of light emission (in units of ‘Relative Light Units’; RLU) from each assay well is quantified using a plate-reading luminometer. Average values of RLU were determined for each treatment concentration. Non-linear regression analyses were performed and IC50 values determined using GraphPad Prism software. Provided inverse-agonists ursolic acid served as positive control.
For orientation: In a reporter assay the amount or activity of a reporter protein is the signal.

Turning to `C[C@H](O)Cn1ncc(-c2onc(-c3cccc(C(=O)N4CCCC4)c3Cl)c2-c2ccncn2)c1C(F)(F)F` [2/3], the “AR-V7 mRNA expression” value with AR-V7 mRNA is “strong reduction”. In addition, the mrna remaining at 1 µM with AR-V7 mRNA came to 25.5%; in the assay on KLK2 mRNA it was 41.1%; in assay [1], 43.4%; in the assay on NKX3.1 mRNA, 35.7%; in the assay with FKBP5 mRNA, 24.5%. In addition, the half-maximal inhibitory concentration (IC50) in the assay with IFNγ, in the assay with IL-17F and in the assay on IL-17A was 25 to 100 nM in each case. For the same molecule, the “KLK2 mRNA level expression” value in the assay with KLK2 mRNA was “strong inhibition”. Further, in assay [1], the “full length AR (AR-FL) mRNA expression” value is on record as “strong reduction”.
As to `C[C@]1(O)C[C@@H](n2ncc(-c3onc(-c4c(F)cccc4Cl)c3-c3ccncn3)c2C(F)(F)F)C1` [2/4], in the assay on AR-V7 mRNA, the “AR-V7 mRNA expression” value was “strong reduction”. In addition, the mrna remaining at 1 µM stood at 25.4% with AR-V7 mRNA; 42.6% in the assay on KLK2 mRNA; 43.5% in assay [1]; 35.9% in the assay with NKX3.1 mRNA; 29.8% in the assay on FKBP5 mRNA. The IC50 is less than 25 nM in the assay with IFNγ, less than 25 nM in the assay on IL-17F and 25 to 100 nM with IL-17A. In addition, the “KLK2 mRNA level expression” value in the assay with KLK2 mRNA is given as “strong inhibition”. The “full length AR (AR-FL) mRNA expression” value in assay [1] is “strong reduction”.
Regarding `CC(C)(O)CCn1ncc(-c2onc(-c3cccc(OCCN4CCOCC4)c3Cl)c2-c2ncccn2)c1C(F)(F)F` [2/7], the “AR-V7 mRNA expression” value in the assay on AR-V7 mRNA is “strong reduction”. Moreover, the mrna remaining at 1 µM came out at 22.8% in the assay with AR-V7 mRNA; 43.6% in the assay on KLK2 mRNA; 42.5% in assay [1]; 30.5% in the assay with NKX3.1 mRNA; 27.5% in the assay with FKBP5 mRNA. The IC50 with IFNγ is less than 25 nM; at RORγt, 100 to 1000 nM; with IL-17F it was less than 25 nM; with IL-17A, 25 to 100 nM. In addition, the “KLK2 mRNA level expression” value in the assay with KLK2 mRNA is reported as “strong inhibition”. Also, the “full length AR (AR-FL) mRNA expression” value in [1] is “strong reduction”.
With `COc1cccc(-c2noc(-c3cnn([C@H]4C[C@@](C)(O)C4)c3C(F)(F)F)c2COC2CC2)c1Cl` [2/9], in the assay on AR-V7 mRNA, the “AR-V7 mRNA expression” value is on record as “strong reduction”. The mrna remaining at 1 µM with AR-V7 mRNA worked out at 29.3%; in the assay on KLK2 mRNA it was 41.2%; in assay [1], 49.9%; in the assay with NKX3.1 mRNA, 48.2%; in the assay with FKBP5 mRNA, 31.5%. The IC50 in the assay with IFNγ, in the assay with IL-17F and in the assay on IL-17A was less than 25 nM in each case. For the same molecule, the “full length AR (AR-FL) mRNA expression” value in [1] is “strong reduction”.
Turning to `CCOC(=O)c1c(-c2cccc(OC)c2Cl)noc1-c1cnn(CCC(C)(C)O)c1C(F)(F)F` [2/10], the “AR-V7 mRNA expression” value in the assay on AR-V7 mRNA is on record as “strong reduction”. The mrna remaining at 1 µM with AR-V7 mRNA is 22.7%; in the assay on KLK2 mRNA, 37.9%; in [1], 53.1%; in the assay with NKX3.1 mRNA, 32.2%; with FKBP5 mRNA, 27.7%. Besides, the IC50 in the assay with IFNγ, in the assay with IL-17F and in the assay on IL-17A was less than 25 nM in each case. Moreover, the “KLK2 mRNA level expression” value in the assay on KLK2 mRNA is “strong inhibition”. The “full length AR (AR-FL) mRNA expression” value in assay [1] was “strong reduction”.
Consider `CC(C)(O)CCn1ncc(-c2onc(-c3c(F)cccc3Cl)c2-c2ncccn2)c1C(F)F` [Example 1/2, 4-(4-(3-(2-Chloro-6-fluorophenyl)-4-(pyrimidin-2-yl)isoxazol-5-yl)-5-(difluoromethyl)-1H-pyrazol-1-yl)-2-methylbutan-2-ol], for which, in the assay on AR-V7 mRNA, the “AR-V7 mRNA expression” value was “strong reduction” and the mrna remaining at 1 µM is 50.9%. Moreover, the IC50 at RORγt was 10 to 100 nM. Moreover, in assay [1], the “full length AR (AR-FL) mRNA expression” value is listed as “strong reduction” and the mrna remaining at 1 µM was found to be 52.4%.
As for `Fc1cccc(Cl)c1-c1noc(-c2cnn(-c3cccc(Cl)c3)c2C(F)(F)F)c1COC1CC1` [Example 2, 3-(2-Chloro-6-fluorophenyl)-5-(1-(3-chlorophenyl)-5-(trifluoromethyl)-1H-pyrazol-4-yl)-4-(cyclopropoxymethyl)isoxazole], on RORγt, the 50% inhibitory concentration (IC50) was less than 10 nM.
Consider `C[C@H](O)Cn1ncc(-c2onc(-c3c(F)cccc3Cl)c2-c2nccs2)c1C(F)(F)F` [Example 2/1], for which the “AR-V7 mRNA expression” value with AR-V7 mRNA is “strong reduction”. Moreover, the mrna remaining at 1 µM in the assay with AR-V7 mRNA came to 22.8%; in the assay on KLK2 mRNA, 56.9%; in assay [1], 42.4%; in the assay with NKX3.1 mRNA it was 39.9%; in the assay with FKBP5 mRNA, 34.4%. Further, the IC50 in the assay on IFNγ, in the assay on IL-17F and in the assay on IL-17A was less than 25 nM each time. For the same molecule, the “full length AR (AR-FL) mRNA expression” value in assay [1] is recorded as “strong reduction”.

Broadly, the IC50 is the midpoint of a concentration-inhibition curve.
